Experimental data reported in US11325889B2, “Substituted 3-((3-aminophenyl)amino)piperidine-2,6-dione compounds, compositions thereof, and methods of treatment therewith” (Celgene Corporation, priority 2018, dated 2022).

Molecular target: T1, AR protein in VCaP cells (Homo sapiens, UniProt P10275)
T1 construct: endogenous in cells; host or cells: VCaP cells
T1 sequence (P10275 1-920): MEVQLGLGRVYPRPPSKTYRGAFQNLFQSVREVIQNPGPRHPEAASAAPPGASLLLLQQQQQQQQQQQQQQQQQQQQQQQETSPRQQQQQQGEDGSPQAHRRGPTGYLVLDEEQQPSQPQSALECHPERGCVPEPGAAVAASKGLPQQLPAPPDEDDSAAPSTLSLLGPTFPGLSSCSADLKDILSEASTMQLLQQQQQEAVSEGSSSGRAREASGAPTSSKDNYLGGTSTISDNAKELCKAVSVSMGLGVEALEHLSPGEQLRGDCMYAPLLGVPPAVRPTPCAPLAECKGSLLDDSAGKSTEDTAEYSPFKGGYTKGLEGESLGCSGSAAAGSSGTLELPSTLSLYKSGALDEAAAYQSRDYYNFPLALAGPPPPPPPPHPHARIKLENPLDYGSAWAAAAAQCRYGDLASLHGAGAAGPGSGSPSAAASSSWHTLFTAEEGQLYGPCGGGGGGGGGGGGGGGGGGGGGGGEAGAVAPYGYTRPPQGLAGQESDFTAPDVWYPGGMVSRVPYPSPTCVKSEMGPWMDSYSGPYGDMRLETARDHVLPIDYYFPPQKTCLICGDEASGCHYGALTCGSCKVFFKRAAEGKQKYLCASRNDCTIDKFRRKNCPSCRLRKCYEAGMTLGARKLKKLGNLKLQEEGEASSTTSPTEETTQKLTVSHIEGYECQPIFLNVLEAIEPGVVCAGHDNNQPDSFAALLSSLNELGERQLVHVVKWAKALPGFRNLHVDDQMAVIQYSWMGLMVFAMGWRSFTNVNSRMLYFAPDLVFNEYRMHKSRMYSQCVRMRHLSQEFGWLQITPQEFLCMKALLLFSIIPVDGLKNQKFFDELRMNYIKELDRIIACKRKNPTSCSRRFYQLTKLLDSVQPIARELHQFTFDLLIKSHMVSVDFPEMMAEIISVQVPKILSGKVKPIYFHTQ
Assay: VCAP AR Degradation Assay (AR ELISA, 24 h)
Format: cell-based
Conditions: for Y (lowest measured AR level normalized to DMSO control): AR degradation efficiency; for DC50: concentration of compound when AR level = 50% of DMSO control, read-out: DC50
Experimental: VCAP AR Degradation Assay.
Test compounds were pre-dispensed into a Corning CellBind 96-well clear bottom plate (Cat #3300) using an acoustic dispenser to make a 10-point concentration series at 1:3 dilution for each compound. The final top concentration of each compound was […]. DMSO at a final concentration of 0.1% was used as a control. VCaP cells cultured in DMEM with 8% fetal bovine serum (FBS) were seeded at 50K cells per well in a 200 μL volume into the compound plate and incubated at 37° C. in a CO2 incubator for 24 h. The medium was carefully removed from the cells and the plate was placed on ice. One hundred […] of ice-cold 1× cell lysis buffer from Cell Signaling Technologies (Cat #9803) was added to each well of the cells and the plate was incubated at 4° C. on a shaker for 1 h. Fifteen […] of cell lysate was used for AR ELISA detection using a PathScan Total Sandwich AR ELISA kit (Cell Signaling Technology, Cat #12580). AR levels in compound-treated wells were normalized to that of DMSO control and expressed as percent of control (PoC) (y). A Four Parameter Logistic Model (Sigmoidal Dose-Response Model) was used to determine the compound's DC50, and EC50, using the following equation: y=(A+((B−A)/(1+((C/x)^D)))) • A=YMin (lowest AR level normalized to DMSO control in response to compound • treatment, as determined by curve fit) • B=YMax (maximum AR level as determined by curve fit) • C=EC50 • D=Hill Slope • x=compound concentration • EC50=the concentration of compound when y=(YMax−YMin)/2 • DC50=the concentration of the compound when y=50% of DMSO control (50% AR degradation) • y=AR protein level normalized to DMSO control
The lowest measured AR level normalized to DMSO control in response to compound treatment, termed Y value, was used to characterize the compound-mediated AR degradation efficiency.

| SMILES | Y (lowest measured AR level normalized to DMSO control) | DC50 [nM] |
| --- | --- | --- |
| CCc1cc(N2C(=S)N(c3cnc(C#N)c(C(F)(F)F)c3)C(=O)C23CCC3)ccc1OCCC1CCN(CC(=O)Nc2cccc(NC3CCC(=O)NC3=O)c2)CC1 (centres unmarked) [Cmpd 29, 2-(4-(2-(4-(7-(6-cyano-5-(trifluoromethyl)pyridin-3-yl)-8-oxo-6-thioxo-5,7-diazaspiro[3.4]octan-5-yl)-2-ethylphenoxy)ethyl)piperidin-1-yl)-N-(3-(2,6-dioxopiperidin-3-ylamino)phenyl)acetamide] | * (0<Y<=25%) | < 100 |
| CC1(C)C(=O)N(c2ccc(C#N)c(C(F)(F)F)c2)C(=S)N1c1ccc(OCCC2CCN(CC(=O)Nc3cccc(NC4CCC(=O)NC4=O)c3)CC2)c(Cl)c1 (centres unmarked) [Cmpd 4, 2-(4-(2-(2-chloro-4-(3-(4-cyano-3-(trifluoromethyl)phenyl)-5,5-dimethyl-4-oxo-2-thioxoimidazolidin-1-yl)phenoxy)ethyl)piperidin-1-yl)-N-(3-(2,6-dioxopiperidin-3-ylamino)phenyl)acetamide] | ** (25%<Y<=35%) | 100 to 500 |
| CCc1cc(N2C(=S)N(c3cnc(C#N)c(C(F)(F)F)c3)C(=O)C23CCC3)ccc1OCCC1CCN(CC(=O)Nc2cc(Cl)cc(NC3CCC(=O)NC3=O)c2)CC1 (centres unmarked) [Cmpd 27, N-(3-chloro-5-(2,6-dioxopiperidin-3-ylamino)phenyl)-2-(4-(2-(4-(7-(6-cyano-5-(trifluoromethyl)pyridin-3-yl)-8-oxo-6-thioxo-5,7-diazaspiro[3.4]octan-5-yl)-2-ethylphenoxy)ethyl)piperidin-1-yl)acetamide] | * (0<Y<=25%) | < 100 |
| CCc1cc(N2C(=S)N(c3cnc(C#N)c(C(F)(F)F)c3)C(=O)C2(C)C)ccc1OCCC1CCN(CC(=O)Nc2cc(Cl)cc(NC3CCC(=O)NC3=O)c2)CC1 (centres unmarked) [Cmpd 13, N-(3-chloro-5-(2,6-dioxopiperidin-3-ylamino)phenyl)-2-(4-(2-(4-(3-(6-cyano-5-(trifluoromethyl)pyridin-3-yl)-5,5-dimethyl-4-oxo-2-thioxoimidazolidin-1-yl)-2-ethylphenoxy)ethyl)piperidin-1-yl)acetamide] | * (0<Y<=25%) | < 100 |
| CC1(C)C(=O)N(c2ccc(C#N)c(C(F)(F)F)c2)C(=S)N1c1ccc(OCC2CCN(CC(=O)Nc3cccc(NC4CCC(=O)NC4=O)c3)CC2)c(F)c1 (centres unmarked) [Cmpd 2, 2-(4-((4-(3-(4-cyano-3-(trifluoromethyl)phenyl)-5,5-dimethyl-4-oxo-2-thioxoimidazolidin-1-yl)-2-fluorophenoxy)methyl)piperidin-1-yl)-N-(3-(2,6-dioxopiperidin-3-ylamino)phenyl)acetamide] | ** (25%<Y<=35%) | 100 to 500 |
| C[C@@H](C(=O)Nc1cccc(NC2CCC(=O)NC2=O)c1)N1CCC(CCOc2ccc(N3C(=S)N(c4cnc(C#N)c(C(F)(F)F)c4)C(=O)C3(C)C)cc2CCF)CC1 (stereo partly drawn) [Cmpd 73, (2S)-2-(4-(2-(4-(3-(6-cyano-5-(trifluoromethyl)pyridin-3-yl)-5,5-dimethyl-4-oxo-2-thioxoimidazolidin-1-yl)-2-(2-fluoroethyl)phenoxy)ethyl)piperidin-1-yl)-N-(3-(2,6-dioxopiperidin-3-ylamino)phenyl)propanamide] | * (0<Y<=25%) | < 100 |
| CCc1cc(N2C(=S)N(c3ccc(C#N)c(C(F)(F)F)c3)C(=O)C2(C)C)ccc1OC1CCN(CC(=O)Nc2cc(Cl)cc(NC3CCC(=O)NC3=O)c2)CC1 (centres unmarked) [Cmpd 49, N-(3-chloro-5-(2,6-dioxopiperidin-3-ylamino)phenyl)-2-(4-(4-(3-(4-cyano-3-(trifluoromethyl)phenyl)-5,5-dimethyl-4-oxo-2-thioxoimidazolidin-1-yl)-2-ethylphenoxy)piperidin-1-yl)acetamide] | ** (25%<Y<=35%) | 100 to 500 |
| CCc1cc(N2C(=S)N(c3cnc(C#N)c(C(F)(F)F)c3)C(=O)C2(C)C)ccc1OCCC1CCN(CC(=O)Nc2cc(NC3CCC(=O)NC3=O)ccc2Cl)CC1 (centres unmarked) [Cmpd 14, N-(2-chloro-5-(2,6-dioxopiperidin-3-ylamino)phenyl)-2-(4-(2-(4-(3-(6-cyano-5-(trifluoromethyl)pyridin-3-yl)-5,5-dimethyl-4-oxo-2-thioxoimidazolidin-1-yl)-2-ethylphenoxy)ethyl)piperidin-1-yl)acetamide] | * (0<Y<=25%) | 100 to 500 |
| CCc1cc(N2C(=S)N(c3cnc(C#N)c(C(F)(F)F)c3)C(=O)C2(C)C)ccc1OCCC1CCN([C@H](C)C(=O)Nc2cccc(N[C@H]3CCC(=O)NC3=O)c2)CC1 [Cmpd 47, (R)-2-(4-(2-(4-(3-(6-cyano-5-(trifluoromethyl)pyridin-3-yl)-5,5-dimethyl-4-oxo-2-thioxoimidazolidin-1-yl)-2-ethylphenoxy)ethyl)piperidin-1-yl)-N-(3-((S)-2,6-dioxopiperidin-3-ylamino)phenyl)propanamide] | * (0<Y<=25%) | < 100 |
| CCc1cc(N2C(=S)N(c3cnc(C#N)c(C(F)(F)F)c3)C(=O)C23CCC3)ccc1OCCC1CCN([C@H](C)C(=O)Nc2cccc(NC3CCC(=O)NC3=O)c2)CC1 (stereo partly drawn) [Cmpd 84, (2R)-2-(4-(2-(4-(7-(6-cyano-5-(trifluoromethyl)pyridin-3-yl)-8-oxo-6-thioxo-5,7-diazaspiro[3.4]octan-5-yl)-2-ethylphenoxy)ethyl)piperidin-1-yl)-N-(3-(2,6-dioxopiperidin-3-ylamino)phenyl)propanamide] | * (0<Y<=25%) | < 100 |
| CCc1cc(N2C(=S)N(c3ccc(C#N)c(C(F)(F)F)c3)C(=O)C23CCC3)ccc1OCCC1CCN([C@@H](C)C(=O)Nc2cccc(NC3CCC(=O)NC3=O)c2)CC1 (stereo partly drawn) [Cmpd 59, (2S)-2-(4-(2-(4-(7-(4-cyano-3-(trifluoromethyl)phenyl)-8-oxo-6-thioxo-5,7-diazaspiro[3.4]octan-5-yl)-2-ethylphenoxy)ethyl)piperidin-1-yl)-N-(3-(2,6-dioxopiperidin-3-ylamino)phenyl)propanamide] | ** (25%<Y<=35%) | 100 to 500 |
| CCc1cc(N2C(=S)N(c3cnc(C#N)c(C(F)(F)F)c3)C(=O)C2(C)C)ccc1OCCC1CCN([C@@H](C)C(=O)Nc2cc(C#N)cc(NC3CCC(=O)NC3=O)c2)CC1 (stereo partly drawn) [Cmpd 37, (2S)-N-(3-cyano-5-(2,6-dioxopiperidin-3-ylamino)phenyl)-2-(4-(2-(4-(3-(6-cyano-5-(trifluoromethyl)pyridin-3-yl)-5,5-dimethyl-4-oxo-2-thioxoimidazolidin-1-yl)-2-ethylphenoxy)ethyl)piperidin-1-yl)propanamide] | * (0<Y<=25%) | < 100 |
| CC1(C)C(=O)N(c2ccc(C#N)c(C(F)(F)F)c2)C(=S)N1c1ccc(OCC2CCN(CC(=O)Nc3cc(Cl)cc(NC4CCC(=O)NC4=O)c3)CC2)c(Cl)c1 (centres unmarked) [Cmpd 9, 2-(4-((2-chloro-4-(3-(4-cyano-3-(trifluoromethyl)phenyl)-5,5-dimethyl-4-oxo-2-thioxoimidazolidin-1-yl)phenoxy)methyl)piperidin-1-yl)-N-(3-chloro-5-(2,6-dioxopiperidin-3-ylamino)phenyl)acetamide] | *** (35%<Y<50%) | 500 to 1000 |
